In patent US20220089575A1, “FARNESOID X RECEPTOR AGONISTS AND USES THEREOF” (Metacrine, Inc., priority 2017, published 2022):

Target: T1, hFXR (Homo sapiens, UniProt Q96RI1)
T1 construct: expressed in transfected cells; host or cells: CV-1 cells
T1 sequence (Q96RI1 1-486): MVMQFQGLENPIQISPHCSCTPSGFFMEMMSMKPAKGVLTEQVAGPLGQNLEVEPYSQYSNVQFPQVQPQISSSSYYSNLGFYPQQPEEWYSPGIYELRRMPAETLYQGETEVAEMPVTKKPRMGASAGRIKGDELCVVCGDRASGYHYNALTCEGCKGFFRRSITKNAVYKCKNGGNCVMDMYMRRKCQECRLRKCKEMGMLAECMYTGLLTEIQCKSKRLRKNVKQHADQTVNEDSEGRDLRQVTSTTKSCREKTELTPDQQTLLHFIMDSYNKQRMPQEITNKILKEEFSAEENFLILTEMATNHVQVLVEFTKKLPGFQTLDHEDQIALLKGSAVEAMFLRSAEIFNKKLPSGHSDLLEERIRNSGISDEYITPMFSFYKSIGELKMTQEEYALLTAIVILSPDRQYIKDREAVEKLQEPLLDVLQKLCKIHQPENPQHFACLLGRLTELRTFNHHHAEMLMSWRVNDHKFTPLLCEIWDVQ
T1 sequence (P19793 1-462 partner): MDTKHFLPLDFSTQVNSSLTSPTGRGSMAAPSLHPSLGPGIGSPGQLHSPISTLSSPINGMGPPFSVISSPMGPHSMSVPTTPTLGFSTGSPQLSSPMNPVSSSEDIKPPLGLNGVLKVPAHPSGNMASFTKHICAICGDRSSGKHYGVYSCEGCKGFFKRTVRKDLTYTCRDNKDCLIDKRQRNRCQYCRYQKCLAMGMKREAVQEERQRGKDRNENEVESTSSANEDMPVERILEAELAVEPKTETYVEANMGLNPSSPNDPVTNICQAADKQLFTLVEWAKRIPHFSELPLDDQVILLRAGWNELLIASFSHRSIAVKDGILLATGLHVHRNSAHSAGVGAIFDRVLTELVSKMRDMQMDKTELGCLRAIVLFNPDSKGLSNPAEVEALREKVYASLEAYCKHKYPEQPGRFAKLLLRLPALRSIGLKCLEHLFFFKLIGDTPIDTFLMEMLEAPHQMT
Assay: In Vitro FXR Assay (TK): TK-ECRE-luc reporter in transfected CV-1 cells
Assay type: cell-based
Details: 18 hrs, luminescence, maximum efficacy of <25% of the Fexarmine control classified as '+'
Procedure, shortened: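 CV-1 cells transiently co-transfected with hFXR, hRXR, TK-ECRE-luc and pCMX-YFP plasmids in charcoal-stripped serum medium. Serially diluted compounds added, cells incubated 18 h at 37° C, then lysed and luminescence read.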

COc1ccc([C@H]2CC[C@H](CN(c3cccc(-c4cnn(C5CC5)c4)c3)C(=O)[C@H]3CC[C@H](CC(=O)O)CC3)CC2)cc1C [Compound 20.09, 2-(trans-4-((3-(1-Cyclopropyl-1H-pyrazol-4-yl)phenyl)((trans-4-(4-methoxy-3-methylphenyl)cyclohexyl)methyl)carbamoyl)cyclohexyl)acetic acid]
EC50: ≤ 250 nM

COc1ccc([C@H]2CC[C@H](CN(c3cc(-c4cnn(C5CC5)c4)ccn3)C(=O)[C@H]3CC[C@H](CC(=O)O)CC3)CC2)cc1C [Compound 20.10, 2-(trans-4-((4-(1-Cyclopropyl-1H-pyrazol-4-yl)pyridin-2-yl)((trans-4-(4-methoxy-3-methylphenyl)cyclohexyl)methyl)carbamoyl)cyclohexyl)acetic acid]
EC50: ≤ 250 nM

COc1ccc([C@H]2CC[C@H](CN(c3cccc(-c4cnn(C5CC5)c4)c3)C(=O)[C@H]3CC[C@H](CC(=O)O)CC3)CC2)cc1C#N [Compound 20.11, 2-(trans-4-(((trans-4-(3-Cyano-4-methoxyphenyl)cyclohexyl)methyl)(3-(1-cyclopropyl-1H-pyrazol-4-yl)phenyl)carbamoyl)cyclohexyl)acetic acid]
EC50: ≤ 250 nM

CN(C)c1ccc([C@H]2CC[C@H](CN(c3cccc(-c4cnn(C5CC5)c4)c3)C(=O)[C@H]3CC[C@H](CC(=O)O)CC3)CC2)cn1 [Compound 20.12, 2-(trans-4-((3-(1-Cyclopropyl-1H-pyrazol-4-yl)phenyl)((trans-4-(6-(dimethylamino)pyridin-3-yl)cyclohexyl)methyl)carbamoyl)cyclohexyl)acetic acid]
EC50: ≤ 250 nM

COc1ccc([C@H]2CC[C@H](CN(c3cccc(-c4cnn(C(C)C)c4)c3)C(=O)[C@H]3CC[C@H](CC(=O)O)CC3)CC2)nc1C [Compound 20.13, 2-(trans-4-((3-(1-Isopropyl-1H-pyrazol-4-yl)phenyl)((trans-4-(5-methoxy-6-methylpyridin-2-yl)cyclohexyl)methyl)carbamoyl)cyclohexyl)acetic acid]
EC50: ≤ 250 nM

COc1ccc([C@H]2CC[C@H](CN(c3cccc(-c4cnn(C(C)C)c4)c3)C(=O)[C@H]3CC[C@H](CC(=O)O)CC3)CC2)cc1C [Compound 20.14, 2-(trans-4-((3-(1-Isopropyl-1H-pyrazol-4-yl)phenyl)((trans-4-(4-methoxy-3-methylphenyl)cyclohexyl)methyl)carbamoyl)cyclohexyl)acetic acid]
EC50: ≤ 250 nM

COc1ccc([C@H]2CC[C@H](CN(c3cc(-c4cnn(C(C)C)c4)ccn3)C(=O)[C@H]3CC[C@H](CC(=O)O)CC3)CC2)cc1C [Compound 20.15, 2-(trans-4-((4-(1-Isopropyl-1H-pyrazol-4-yl)pyridin-2-yl)((trans-4-(4-methoxy-3-methylphenyl)cyclohexyl)methyl)carbamoyl)cyclohexyl)acetic acid]
EC50: ≤ 250 nM

COc1ccc([C@H]2CC[C@H](CN(c3cccc(-c4cnn(C(C)C)c4)c3)C(=O)[C@H]3CC[C@H](CCC(=O)O)CC3)CC2)cc1C [Compound 20.16, 3-(trans-4-((3-(1-Isopropyl-1H-pyrazol-4-yl)phenyl)((trans-4-(4-methoxy-3-methylphenyl)cyclohexyl)methyl)carbamoyl)cyclohexyl)propanoic acid]
EC50: ≤ 250 nM

COc1ccc(C23CCC(CN(c4cc(-c5coc(C6CC6)n5)ccn4)C(=O)[C@H]4CC[C@H](CC(=O)O)CC4)(CC2)CC3)cc1C [Compound 21, trans-2-(4-((4-(2-Cyclopropyloxazol-4-yl)pyridin-2-yl)((4-(4-methoxy-3-methylphenyl)bicyclo[2.2.2]octan-1-yl)methyl)carbamoyl)cyclohexyl) acetic acid]
EC50: ≤ 250 nM

COc1ccc([C@H]2CC[C@H](CN(c3cc(-c4coc(C5CC5)n4)ccn3)C(=O)[C@H]3CC[C@H](CC(=O)O)CC3)CC2)cc1C [Compound 21.01, 2-(trans-4-((4-(2-Cyclopropyloxazol-4-yl)pyridin-2-yl)((trans-4-(4-methoxy-3-methylphenyl)cyclohexyl)methyl)carbamoyl)cyclohexyl)acetic acid]
EC50: ≤ 250 nM
